{
  "source": "patent US7459284B2",
  "about": "“Chemiluminescent acridinium compounds and analogues thereof as substrates of hydrolytic enzymes” (Siemens Healthcare Diagnostics Inc., priority 1999, dated 2008)",
  "key": {"[1]": {"target": "T1, alkaline phosphatase (Bos taurus, UniProt P19111)", "T1 sequence (P19111 20-506)": "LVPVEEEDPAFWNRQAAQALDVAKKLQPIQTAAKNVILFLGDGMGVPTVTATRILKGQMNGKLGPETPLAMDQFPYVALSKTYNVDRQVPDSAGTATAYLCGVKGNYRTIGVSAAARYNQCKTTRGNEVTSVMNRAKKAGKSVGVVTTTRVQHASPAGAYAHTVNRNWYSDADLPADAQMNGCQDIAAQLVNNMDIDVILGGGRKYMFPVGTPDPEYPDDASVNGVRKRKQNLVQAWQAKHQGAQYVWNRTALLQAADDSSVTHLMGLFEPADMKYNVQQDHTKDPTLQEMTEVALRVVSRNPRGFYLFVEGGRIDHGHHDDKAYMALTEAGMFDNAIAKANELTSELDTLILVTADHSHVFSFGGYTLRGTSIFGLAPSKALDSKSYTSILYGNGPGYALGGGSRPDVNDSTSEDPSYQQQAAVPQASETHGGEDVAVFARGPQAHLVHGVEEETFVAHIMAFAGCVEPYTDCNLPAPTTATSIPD", "test": "Enzymatic conversion of substrate by alkaline phosphatase (HPLC analysis)", "format": "biochemical", "conditions": "alkaline aqueous medium; about 1 hour", "procedure": "A 1 mM DMF solution of the acridinium 3-enol-phosphate (13) was mixed with 150 μL of 100 mM Tris pH 9 also containing 1 mM MgCl2. Alkaline phosphatase (5 μl of a 2 mg/ml solution) was added and the reaction was incubated at room temperature for ˜1 hour. […] The product was isolated by semi-preparative HPLC using a 7.8×300 mm, C18 column. MALDI-TOF MS of the product indicated this was indeed the keto product (14): m/z 521.36 obs. (520.56 calc.).\nA 20 μL DMF solution of the acridan (15) (1.7 mM) was combined with 180 μl of 0.15 M 2-amino-2-methyl-1-propanol pH 10.3 also containing 1 mM magnesium acetate. A clear blue solution was obtained (0.17 mM substrate), which was then treated with alkaline phosphatase (10^−10 moles). The blue color was discharged instantly. […] The reaction mixture was then evaluated by the FSSS to determine the light emission spectrum of the product, which is shown in FIG. 2N. The product was isolated by semi-preparative HPLC. […] (521.56 calc.)."}, "[2]": {"target": "T1, alkaline phosphatase", "test": "Alkaline phosphatase assay using 4′-Phos-AE (17) as chemiluminescent substrate", "format": "biochemical", "conditions": "0.1 mM substrate, pH 9 Tris, 3-4 hours room temperature; 0.1 ml reaction volume; measuring time 0.3 s", "procedure": "Treatment of a solution of 4′-Phos-AE (17, 0.1 mM,) in 100 mM Tris pH 9, 1 mM MgCl2 with varying concentrations of alkaline phosphatase was carried out. The reactions were incubated for 3-4 hours at room temperature and were then sequentially diluted 10^4-fold into ‘flash buffer’ which contains 10 mM phosphate pH 8 with 150 mM NaCl, 0.1% BSA and 0.05% sodium azide. Chemiluminescence of a 25 μL solution was measured on a Bayer Diagnostics' Magic Lite Ananlyzer (MAL1) equipped with a BG38 filter. A measuring time of 0.3 s was employed. Evaluation of the chemiluminescent activity of the reactions indicated a steady decrease in total chemiluminesence with increasing concentrations of enzyme. Thus, as the concentration of enzyme is increased, a greater proportion of the fast-emitting substrate 4′-Phos-AE is converted to the slow-emitting product 4′-OH-AE (18) leading to an overall decrease in light output (at a short measuring time). Alkaline phosphatase was easily detected at 5×10^−17 moles (0.1 ml reaction volume) in this assay."}, "[3]": {"test": "Light emission kinetics of substrate vs product", "format": "physicochemical", "conditions": "short measuring times (0.5-0.3 s)", "source_text": "One of the more preferred chemiluminescent acridinium substrates of Formula XIII is compound 4′-Phos-AE (17)."}, "[4]": {"test": "Light emission spectra by Fast Spectral Scanning System (FSSS)", "format": "physicochemical", "procedure": "The light emission spectra of compounds 1˜12 and 15˜18 were determined by a Fast Spectral Scanning System (FSSS) of Photo Research (a division of Kollmorgen Corp.) of Burbank, Calif., U.S.A. The experiment was carried out in a dark room. Each compound was dissolved in acetonitrile or N,N-dimethylformamide. The resulting concentrate was diluted with the same solvent to form the working solution, which upon flashing gave a light emission with an adequate intensity. A typical experiment utilized 10˜100 μg or more of the sample in 500 μl of the solvent contained in a 13×100 mm borosilicate test tube. The tube was placed on a test tube rack raised to a proper height. A piece of aluminum foil was placed on the back of the tube to enhance the detectability of the emitted light. The FSSS optical head was placed in front of the tube at an approximate distance of about 130 mm with its lens focused on the liquid in the tube. The sample solution was first treated with 0.35 ml of the Flashing Reagent #1 (Bayer Diagnostics) containing 0.1 N HNO3 and 0.5% H2O2. The room was then darkened, and 0.35 ml of the Flashing Reagent #2 (Bayer Diagnostics) containing 0.25 N NaOH and 0.5% ARQUAD was added to the reaction mixture immediately. (See U.S. Pat. No. 4,927,769, which is commonly assigned and incorporated herein by reference.) The light which was generated instantaneously following the addition of the Reagent #2 was recorded by FSSS for 5 seconds starting from about one second before the Reagent #2 was added."}},
  "data": [
    {"smiles": "C[n+]1c2ccccc2c(C(=O)Oc2ccc(OP(=O)(O)O)cc2)c2ccccc21", "note": "[Compound 17, 4′-phosphophenyl 10-methyl acridinium-9-carboxylate trifluoromethanesulfonate]", "values": [
      {"measurement": "conversion by alkaline phosphatase", "setting": "[1]", "result": "readily converted"},
      {"measurement": "level of alkaline phosphatase detected", "setting": "[2]", "result": "5e-17", "unit": "mol"},
      {"measurement": "speed of light emission relative to product 18", "setting": "[3]", "result": "~190", "unit": "times"},
      {"measurement": "Emission Maximum", "setting": "[4]; FSSS, hydrogen peroxide in strong alkaline solution", "result": 436, "unit": "nm"},
      {"measurement": "Emission Range", "setting": "[4]; spectral region with signal intensity above 5% of peak height, FSSS scanning limit 380-780 nm, flashed with 0.1 N HNO3/0.5% H2O2 then 0.25 N NaOH/0.5% ARQUAD", "result": "410-540 nm"}
    ]}
  ]
}
